Molecules are shown by their SMILES. Read-outs that look alike come from different tables or passages of the source.

The subject of one series is HDAC6. The conditions noted are these: cited from earlier work.
Another series deals with human HDAC1 (Homo sapiens, UniProt Q13547). In words: In vitro inhibitory activity on purified recombinant HDAC1 (fluorogenic peptide assay, Reaction Biology Corp.).
For a further series, the target named is T1, human HDAC8 (Homo sapiens, UniProt Q9BY41).
T1 sequence (Q9BY41 1-377): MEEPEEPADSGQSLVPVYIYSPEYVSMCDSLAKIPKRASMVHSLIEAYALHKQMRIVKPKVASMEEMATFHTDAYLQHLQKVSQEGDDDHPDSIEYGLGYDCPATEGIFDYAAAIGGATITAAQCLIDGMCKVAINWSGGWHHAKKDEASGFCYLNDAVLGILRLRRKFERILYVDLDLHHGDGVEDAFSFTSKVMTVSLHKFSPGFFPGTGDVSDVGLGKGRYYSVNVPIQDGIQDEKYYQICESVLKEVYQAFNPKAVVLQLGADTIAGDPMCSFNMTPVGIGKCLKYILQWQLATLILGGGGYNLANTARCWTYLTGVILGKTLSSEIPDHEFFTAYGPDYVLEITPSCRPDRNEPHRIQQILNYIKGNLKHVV
Briefly: In vitro inhibitory activity on purified recombinant HDAC8 (fluorogenic peptide assay, Reaction Biology Corp.).

Another series addresses T2, human HDAC6 (Homo sapiens, UniProt Q9UBN7).
T2 construct: purchased Reaction Biology Corp. (contract assay)
T2 sequence (Q9UBN7 1-1215): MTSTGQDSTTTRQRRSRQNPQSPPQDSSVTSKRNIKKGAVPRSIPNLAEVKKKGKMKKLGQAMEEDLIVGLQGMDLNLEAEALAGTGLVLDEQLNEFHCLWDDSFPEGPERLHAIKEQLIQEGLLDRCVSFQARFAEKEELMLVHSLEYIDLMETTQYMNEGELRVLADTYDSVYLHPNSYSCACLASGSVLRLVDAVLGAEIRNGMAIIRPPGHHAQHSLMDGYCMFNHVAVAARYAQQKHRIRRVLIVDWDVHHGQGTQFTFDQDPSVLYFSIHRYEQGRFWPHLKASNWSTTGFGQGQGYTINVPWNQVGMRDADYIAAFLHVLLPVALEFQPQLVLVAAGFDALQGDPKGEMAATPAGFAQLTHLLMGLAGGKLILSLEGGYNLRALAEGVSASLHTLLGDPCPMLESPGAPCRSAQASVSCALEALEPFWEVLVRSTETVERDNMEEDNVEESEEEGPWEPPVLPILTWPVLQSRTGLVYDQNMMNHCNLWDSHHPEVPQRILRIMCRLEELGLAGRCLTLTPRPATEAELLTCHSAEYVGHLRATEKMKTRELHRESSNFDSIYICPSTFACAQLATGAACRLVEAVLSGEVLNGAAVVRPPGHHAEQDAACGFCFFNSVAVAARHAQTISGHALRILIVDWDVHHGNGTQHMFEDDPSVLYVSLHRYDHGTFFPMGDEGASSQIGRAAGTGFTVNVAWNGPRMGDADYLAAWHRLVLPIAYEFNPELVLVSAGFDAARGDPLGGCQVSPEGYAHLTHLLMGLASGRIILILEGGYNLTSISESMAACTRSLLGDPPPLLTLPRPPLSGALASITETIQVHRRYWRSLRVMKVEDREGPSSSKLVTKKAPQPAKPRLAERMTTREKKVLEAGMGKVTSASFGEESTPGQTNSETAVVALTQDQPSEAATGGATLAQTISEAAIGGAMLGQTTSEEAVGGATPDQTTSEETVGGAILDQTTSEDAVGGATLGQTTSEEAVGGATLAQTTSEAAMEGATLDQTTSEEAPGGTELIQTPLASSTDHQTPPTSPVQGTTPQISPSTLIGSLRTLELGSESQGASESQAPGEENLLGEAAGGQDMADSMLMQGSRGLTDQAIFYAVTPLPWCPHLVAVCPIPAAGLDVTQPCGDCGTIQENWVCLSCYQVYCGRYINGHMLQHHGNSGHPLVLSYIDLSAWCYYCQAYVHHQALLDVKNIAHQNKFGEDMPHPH
Briefly: In vitro inhibitory activity on purified recombinant HDAC6 (fluorogenic peptide assay, Reaction Biology Corp.). It counts as biochemical. Conditions: for selectivity for HDAC6 with respect to HDAC1: HDAC6 vs HDAC1, from the IC50 values of Table 2; for selectivity for HDAC6 with respect to HDAC8: HDAC6 vs HDAC8, from the IC50 values of Table 2; for IC50: purified recombinant enzyme, RHKK-Ac-AMC substrate, singlet 10-dose, 3-fold serial dilution. On the procedure:
Figure S1. […] All compounds were tested in singlet
IC50 values were calculated
Figure S2. […] All compounds were tested in singlet
Figure S3. […] All compounds were tested in singlet

[1] abbreviates: known quinazoline-capped inhibitors, Fig. 1.

Chain of human HDAC1 (Q13547 whole entry): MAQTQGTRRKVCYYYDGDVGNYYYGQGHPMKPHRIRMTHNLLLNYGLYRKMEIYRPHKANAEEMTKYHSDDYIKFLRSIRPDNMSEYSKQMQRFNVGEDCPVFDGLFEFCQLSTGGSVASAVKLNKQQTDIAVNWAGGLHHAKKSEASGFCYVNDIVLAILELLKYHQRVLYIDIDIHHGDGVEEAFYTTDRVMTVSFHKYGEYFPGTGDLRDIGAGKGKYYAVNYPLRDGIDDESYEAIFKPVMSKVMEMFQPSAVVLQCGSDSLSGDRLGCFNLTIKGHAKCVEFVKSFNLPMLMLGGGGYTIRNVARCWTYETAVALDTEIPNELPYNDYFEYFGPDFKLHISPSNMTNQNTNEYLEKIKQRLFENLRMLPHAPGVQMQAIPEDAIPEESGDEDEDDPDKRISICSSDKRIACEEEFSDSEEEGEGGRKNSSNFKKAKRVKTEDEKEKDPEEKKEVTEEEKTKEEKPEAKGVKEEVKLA
Experimental for human HDAC1: (§1) In vitro tests on HDAC6, HDAC1 and HDAC8 were performed at Reaction Biology Corp. with modalities described below. […] The compounds were dissolved in DMSO and tested with 3-fold serial dilution starting from 100 μM. The enzymatic assays were performed by adding HDAC6 and the ligand solutions in the reaction buffer described above. […] IC50 values were calculated by using the GraphPad Prism 4 program based on a sigmoidal dose–response equation. The blank (DMSO) value concentration was entered as 1.00 × 10^−12 M for curve fitting.
(§2) using the GraphPad Prism4 program based on a sigmoidal dose-response equation.
Experimental for human HDAC8: as §1, §2

As usually defined, the IC50 is the midpoint of a concentration-inhibition curve. Regarding `COc1ccc(N(C)c2nc(C)nc3ccccc23)cc1OCCCC(=O)NO` [Compound 1], the IC50 with HDAC6 (setting [1]) was 17 nM.
Take `COc1ccc(N(C)c2nc(C)nc3ccccc23)cc1NC(=O)CCC(=O)NO` [Compound 2]: the IC50 in the series with HDAC6 (setting [1]) was 16 nM.
As to `COc1ccc(N(C)c2nc(C)nc3ccccc23)cc1NC(=O)CCCC(=O)NO` [Compound 3], the IC50 in the series with HDAC6 (setting [1]) is 35 nM.
`COc1cc2nc(NCCCCCCC(=O)NO)nc(NC3CCN(C(C)C)CC3)c2cc1OC` [Compound 5]: the IC50 with HDAC6 (most active quinazoline inhibitor reported so far) was 12 nM.
In general, melting point refers to the temperature of the solid-liquid transition. As for `Nc1nc2c3ccc(Cc4ccc(C(=O)NO)cc4)cc3nc(Cc3ccc4c(c3)OCO4)n2n1` [Compound 11a, 4-((2-Amino-5-(benzo[d][1,3]dioxol-5-ylmethyl)-[1,2,4]triazolo[1,5-c]quinazolin-8-yl)methyl)-N-hydroxybenzamide], the melting point was < 267 °C (dec.). On human HDAC1, the IC50 came to 6080 nM. In addition, on human HDAC8, the IC50 turned out to be 653 nM. In addition, on human HDAC6, the “selectivity for HDAC6 with respect to HDAC1” value is on record as “more than 12 000 fold”, the “selectivity for HDAC6 with respect to HDAC8” value is on record as over 1000 fold and the IC50 turned out to be 0.5 nM.
As for `Nc1n[nH]c(-c2cc(Cc3ccc(C(=O)NO)cc3)ccc2NC(=O)Cc2ccc3c(c2)OCO3)n1` [Compound 18, 4-(3-(3-Amino-1H-1,2,4-triazol-5-yl)-4-(2-(benzo[d][1,3]dioxol-5-yl)acetamido)benzyl)-N-hydroxybenzamide], the melting point was < 264 °C (dec.). In addition, the IC50 on human HDAC1 stood at 1820 nM. In addition, the IC50 at human HDAC8 was determined as 1560 nM. At human HDAC6, the “selectivity for HDAC6 with respect to HDAC1” value is > 18 000 fold, the “selectivity for HDAC6 with respect to HDAC8” value is > 15 000 fold and the IC50 was 0.1 nM.

(Values after PMC9006239, “Synthesis of potent and selective HDAC6 inhibitors led to unexpected opening of a quinazoline ring” (RSC Advances, 2022).)
